Where a name gives a salt, the structure may show the parent alone. Read-outs that look alike come from different tables or passages of the source.
Legend:
[1] = target: T1, EGFR (Homo sapiens, UniProt P00533); test: Kinase HotSpot profiling (Reaction Biology), 33P-ATP filter-binding; type: biochemical; conditions: WT EGFR
T1 construct: purchased Reaction Biology
Protocol: (§1) Base Reaction buffer; 20 mM Hepes (pH 7.5), 10 mM MgCl2, 1 mM EGTA, 0.02% Brij35, 0.02 mg/ml BSA, 0.1 mM Na3VO4, 2 mM DTT, 1% DMSO
(§2) *Required cofactors are added individually to each kinase reaction
(§3) 1. The indicated substrate was prepared in fresh Base Reaction Buffer.
(§4) 2. Any required cofactors were added to the substrate solution above.
(§5) 3. Indicated kinase was added into the substrate solution and gently mixed.
(§6) 4. Compounds in DMSO were added into the kinase reaction mixture by Acoustic technology (Echo550; nanoliter range) and incubated for 20 minutes at room temperature.
(§7) 5. 33P-ATP (specific activity 10 μCi/μl) was added into the reaction mixture to initiate the reaction.
(§8) 6. The kinase reaction was incubated for 2 hours at room temperature
(§9) 7. Reactions were spotted onto P81 ion exchange paper.
(§10) 8. Kinase activity was detected by filter-binding method.
(§11) Representative compounds of Formula I were evaluated against WT EGFR and mutant EGFR (L858R and L858R, T790M) kinases. IC50 concentrations are illustrated in Table 9.

[2] = target: T2, EGFR (L858R) (Homo sapiens, UniProt P00533, L858R); test: as above; type: biochemical; conditions: mutant EGFR L858R
T2 construct: purchased Reaction Biology
T2 sequence (P00533 25-1210 L858R): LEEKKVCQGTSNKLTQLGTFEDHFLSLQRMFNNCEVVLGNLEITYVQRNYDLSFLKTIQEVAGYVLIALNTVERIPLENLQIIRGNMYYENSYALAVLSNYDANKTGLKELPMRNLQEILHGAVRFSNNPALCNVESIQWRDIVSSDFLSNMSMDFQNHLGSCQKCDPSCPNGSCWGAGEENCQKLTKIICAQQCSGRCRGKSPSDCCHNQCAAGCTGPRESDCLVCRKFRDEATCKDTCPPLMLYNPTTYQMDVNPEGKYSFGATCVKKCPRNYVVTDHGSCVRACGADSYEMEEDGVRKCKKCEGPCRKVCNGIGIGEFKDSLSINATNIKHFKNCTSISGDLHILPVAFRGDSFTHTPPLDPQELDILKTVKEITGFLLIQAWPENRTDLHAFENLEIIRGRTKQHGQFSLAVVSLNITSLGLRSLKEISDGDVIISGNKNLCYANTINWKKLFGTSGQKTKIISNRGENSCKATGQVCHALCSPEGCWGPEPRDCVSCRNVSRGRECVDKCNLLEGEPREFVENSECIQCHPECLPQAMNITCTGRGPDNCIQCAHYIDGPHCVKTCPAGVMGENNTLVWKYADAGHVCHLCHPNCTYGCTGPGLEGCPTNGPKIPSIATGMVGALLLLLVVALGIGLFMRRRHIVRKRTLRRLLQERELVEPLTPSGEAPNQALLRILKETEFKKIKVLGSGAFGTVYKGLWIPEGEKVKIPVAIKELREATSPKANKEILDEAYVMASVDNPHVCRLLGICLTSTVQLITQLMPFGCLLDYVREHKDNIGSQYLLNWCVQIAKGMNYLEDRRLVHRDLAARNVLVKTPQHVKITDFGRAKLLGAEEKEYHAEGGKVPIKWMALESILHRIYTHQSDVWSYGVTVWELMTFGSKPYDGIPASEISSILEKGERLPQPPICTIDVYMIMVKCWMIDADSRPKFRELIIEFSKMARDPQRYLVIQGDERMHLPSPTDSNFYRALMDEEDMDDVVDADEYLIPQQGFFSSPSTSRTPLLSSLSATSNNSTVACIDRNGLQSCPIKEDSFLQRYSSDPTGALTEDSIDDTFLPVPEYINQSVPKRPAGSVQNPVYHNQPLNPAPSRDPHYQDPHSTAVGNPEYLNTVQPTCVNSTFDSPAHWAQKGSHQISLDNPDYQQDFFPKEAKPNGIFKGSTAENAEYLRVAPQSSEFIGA
Protocol: as §1, §2, §3, §4, §5, §6, §7, §8, §9, §10, §11

[3] = target: T3, EGFR (L858R, T790M) (Homo sapiens, UniProt P00533, L858R/T790M); test: as above; type: biochemical; conditions: mutant EGFR L858R
T3 construct: purchased Reaction Biology
T3 sequence (P00533 25-1210 T790M/L858R): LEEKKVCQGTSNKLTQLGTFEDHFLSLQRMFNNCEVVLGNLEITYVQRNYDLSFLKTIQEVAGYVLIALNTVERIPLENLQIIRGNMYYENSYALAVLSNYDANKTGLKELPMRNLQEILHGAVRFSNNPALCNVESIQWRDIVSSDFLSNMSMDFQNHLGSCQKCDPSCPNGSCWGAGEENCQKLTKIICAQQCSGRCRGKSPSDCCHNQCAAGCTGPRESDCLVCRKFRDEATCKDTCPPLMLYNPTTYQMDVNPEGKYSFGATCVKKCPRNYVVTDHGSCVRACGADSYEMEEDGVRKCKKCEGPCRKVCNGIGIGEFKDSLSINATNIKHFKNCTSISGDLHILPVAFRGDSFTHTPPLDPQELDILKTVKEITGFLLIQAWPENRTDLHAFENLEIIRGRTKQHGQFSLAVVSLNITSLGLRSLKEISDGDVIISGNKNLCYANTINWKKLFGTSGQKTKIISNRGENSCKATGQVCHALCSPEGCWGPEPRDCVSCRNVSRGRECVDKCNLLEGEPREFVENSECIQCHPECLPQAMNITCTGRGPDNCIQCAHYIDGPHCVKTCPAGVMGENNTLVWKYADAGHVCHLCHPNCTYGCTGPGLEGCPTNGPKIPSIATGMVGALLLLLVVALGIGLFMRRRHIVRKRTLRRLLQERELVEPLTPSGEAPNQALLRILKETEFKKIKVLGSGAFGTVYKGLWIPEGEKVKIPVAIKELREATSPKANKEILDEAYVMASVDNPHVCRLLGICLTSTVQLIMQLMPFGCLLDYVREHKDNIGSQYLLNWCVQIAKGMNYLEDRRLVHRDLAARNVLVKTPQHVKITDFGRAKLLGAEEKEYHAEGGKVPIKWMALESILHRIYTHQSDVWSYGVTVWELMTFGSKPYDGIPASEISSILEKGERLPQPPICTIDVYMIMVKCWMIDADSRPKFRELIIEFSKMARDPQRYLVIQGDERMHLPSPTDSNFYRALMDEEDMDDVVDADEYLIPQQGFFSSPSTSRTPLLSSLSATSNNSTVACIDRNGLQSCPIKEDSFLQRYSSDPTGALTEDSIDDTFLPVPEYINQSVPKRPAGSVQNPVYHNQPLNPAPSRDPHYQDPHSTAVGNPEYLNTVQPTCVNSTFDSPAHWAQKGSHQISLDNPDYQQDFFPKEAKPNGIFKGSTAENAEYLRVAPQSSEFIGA
Protocol: as §1, §2, §3, §4, §5, §6, §7, §8, §9, §10, §11

[4] = Brain and plasma concentrations after oral gavage in rat, sampling to 4 hours (Table 4); type: in vivo; conditions: Table 4 (4 hours); for AUClast / Cmax / Tmax: brain tissue, PO 50 mg/kg; for Cmax / Tmax / Kp at 4 h: male, Sprague-Dawley (SD); for Kp at 4 h: brain/plasma, po, 50 mg/kg
[5] = test system: EGFR(L747-T751del, Sins); test: Kinome screen at 300 nM (qPCR competition binding)
[6] = Mouse liver microsomal stability; type: in vitro ADME; conditions: stability in pooled mouse (CD-1, male) liver microsomes 0.5 mg/ml, compound 1 μM, parent compound by LC/MS, in % (unit assumed)
Protocol: (§12) Working stocks were initially diluted to a concentration of 40.0 μM in 0.1 M potassium phosphate buffer before addition to the reaction vials. Pooled mouse (CD-1, male) or human (50 donors) liver microsomes were utilized at a final concentration of 0.5 mg/ml. Duplicate wells were used for each time point (0 and 30 minutes). Reactions were carried out at 37° C. in a shaker, and the final concentration of DMSO was kept constant at 0.01%. The final volume for each reaction was 100 μL, which includes the addition of an NADPH-Regeneration solution (NRS) mix. This NRS mix is comprised of glucose 6-phosphate dehydrogenase (0.4 U/mL), NADP+ (1.3 mM), MgCl2 (3.3 mM), and glucose 6-phosphate (3.3 mM) in assay mixtures. Upon completion of the 30 minute time point, reactions were terminated by the addition of 1.5-volumes (150 μL) of ice-cold, acetonitrile with 0.5% formic acid and internal standard. Samples were then centrifuged at 4,000 rpm for 10 minutes to remove debris and precipitated protein. Approximately 150 μL of supernatant was subsequently transferred to a new 96 well microplate for LC/MS analysis.
(§13) Narrow-window mass extraction LC/MS analysis was performed for all samples using a Waters Xevo quadrupole time-of-flight (QTof) mass spectrometer and an ACQUITY UPLC system, to determine relative peak areas of parent compound.
(§14) Human and mouse liver microsomes contain a wide variety of drug metabolizing enzymes and are commonly used to support in vitro ADME (absorption, distribution, metabolism and excretion) studies. These microsomes are used to examine the potential first-pass metabolism by-products of orally administered drugs. Representative compounds of the application were evaluated for their stability in human and mouse liver microsomes.

[7] = Human liver microsomal stability; type: in vitro ADME; conditions: stability in pooled human (50 donors) liver microsomes 0.5 mg/ml, compound 1 μM, parent compound by LC/MS
Protocol: as §12, §13, §14

[8] = test system: HCC827; test: Comparison with 1st generation inhibitors against a lung cancer cell line (HCC827); type: cell-based; conditions: Homo sapiens, read-out: Biochemical IC50
[9] = Brain concentrations after PO administration in rat, peak at 8 hours (Table 5); type: in vivo; conditions: Table 5 (8 hours); for Kp at 8 h: brain/plasma, po, 50 mg/kg
[10] = target: T4, P-gp (Homo sapiens, UniProt P08183); test: Evaluation of P-gp efflux in Caco-2 cell monolayers; type: in vitro ADME;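 note: Caco-2 monolayers dosed apically or basolaterally with test compound at 5 µM in HBSS with HEPES and glucose, 37 °C, donor and receiver sampled after 120 min, LC/MS peak areas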
T4 construct: host or cells: Caco-2 (C2BBe1)
T4 sequence (P08183 whole entry): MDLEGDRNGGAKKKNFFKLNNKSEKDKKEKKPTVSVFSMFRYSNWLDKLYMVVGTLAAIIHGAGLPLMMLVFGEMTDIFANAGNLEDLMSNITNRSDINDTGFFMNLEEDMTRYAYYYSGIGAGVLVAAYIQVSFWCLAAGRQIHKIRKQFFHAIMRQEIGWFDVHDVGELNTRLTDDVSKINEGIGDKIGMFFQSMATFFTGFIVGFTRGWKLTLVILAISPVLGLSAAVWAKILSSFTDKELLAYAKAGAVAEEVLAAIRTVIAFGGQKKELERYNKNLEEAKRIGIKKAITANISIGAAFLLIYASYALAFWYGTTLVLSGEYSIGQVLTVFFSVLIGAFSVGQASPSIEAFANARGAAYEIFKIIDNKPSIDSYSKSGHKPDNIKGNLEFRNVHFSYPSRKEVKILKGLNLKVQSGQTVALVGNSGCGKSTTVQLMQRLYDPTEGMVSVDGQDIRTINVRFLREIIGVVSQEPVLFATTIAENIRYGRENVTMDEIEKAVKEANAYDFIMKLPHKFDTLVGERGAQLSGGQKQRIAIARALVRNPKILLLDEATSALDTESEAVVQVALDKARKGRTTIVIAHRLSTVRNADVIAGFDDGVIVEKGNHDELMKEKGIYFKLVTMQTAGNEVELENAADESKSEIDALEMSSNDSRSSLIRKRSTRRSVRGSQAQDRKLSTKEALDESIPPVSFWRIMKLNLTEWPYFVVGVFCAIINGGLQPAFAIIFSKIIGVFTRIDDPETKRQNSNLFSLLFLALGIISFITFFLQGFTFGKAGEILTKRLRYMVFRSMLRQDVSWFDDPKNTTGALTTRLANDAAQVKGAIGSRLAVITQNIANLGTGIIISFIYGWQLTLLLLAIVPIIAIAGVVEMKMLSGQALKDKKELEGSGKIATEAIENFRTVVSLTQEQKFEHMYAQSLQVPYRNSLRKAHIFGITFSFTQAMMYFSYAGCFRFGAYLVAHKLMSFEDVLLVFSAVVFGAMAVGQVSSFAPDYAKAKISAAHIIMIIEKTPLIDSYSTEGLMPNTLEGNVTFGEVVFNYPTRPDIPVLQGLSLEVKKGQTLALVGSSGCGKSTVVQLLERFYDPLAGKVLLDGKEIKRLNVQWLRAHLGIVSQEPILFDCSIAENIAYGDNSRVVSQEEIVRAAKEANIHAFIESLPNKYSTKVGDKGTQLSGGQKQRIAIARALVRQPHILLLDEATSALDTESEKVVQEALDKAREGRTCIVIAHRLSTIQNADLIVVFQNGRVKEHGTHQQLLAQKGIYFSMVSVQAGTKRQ

[11] = target: T5, EPHA6 (Homo sapiens, UniProt Q9UF33); test: Kinome screen at 300 nM (qPCR competition binding); parameters: purchased DiscoveRx; host or cells: E. coli BL21-derived (T7 phage) or HEK-293; conditions: result in words
T5 sequence (Q9UF33 23-1036): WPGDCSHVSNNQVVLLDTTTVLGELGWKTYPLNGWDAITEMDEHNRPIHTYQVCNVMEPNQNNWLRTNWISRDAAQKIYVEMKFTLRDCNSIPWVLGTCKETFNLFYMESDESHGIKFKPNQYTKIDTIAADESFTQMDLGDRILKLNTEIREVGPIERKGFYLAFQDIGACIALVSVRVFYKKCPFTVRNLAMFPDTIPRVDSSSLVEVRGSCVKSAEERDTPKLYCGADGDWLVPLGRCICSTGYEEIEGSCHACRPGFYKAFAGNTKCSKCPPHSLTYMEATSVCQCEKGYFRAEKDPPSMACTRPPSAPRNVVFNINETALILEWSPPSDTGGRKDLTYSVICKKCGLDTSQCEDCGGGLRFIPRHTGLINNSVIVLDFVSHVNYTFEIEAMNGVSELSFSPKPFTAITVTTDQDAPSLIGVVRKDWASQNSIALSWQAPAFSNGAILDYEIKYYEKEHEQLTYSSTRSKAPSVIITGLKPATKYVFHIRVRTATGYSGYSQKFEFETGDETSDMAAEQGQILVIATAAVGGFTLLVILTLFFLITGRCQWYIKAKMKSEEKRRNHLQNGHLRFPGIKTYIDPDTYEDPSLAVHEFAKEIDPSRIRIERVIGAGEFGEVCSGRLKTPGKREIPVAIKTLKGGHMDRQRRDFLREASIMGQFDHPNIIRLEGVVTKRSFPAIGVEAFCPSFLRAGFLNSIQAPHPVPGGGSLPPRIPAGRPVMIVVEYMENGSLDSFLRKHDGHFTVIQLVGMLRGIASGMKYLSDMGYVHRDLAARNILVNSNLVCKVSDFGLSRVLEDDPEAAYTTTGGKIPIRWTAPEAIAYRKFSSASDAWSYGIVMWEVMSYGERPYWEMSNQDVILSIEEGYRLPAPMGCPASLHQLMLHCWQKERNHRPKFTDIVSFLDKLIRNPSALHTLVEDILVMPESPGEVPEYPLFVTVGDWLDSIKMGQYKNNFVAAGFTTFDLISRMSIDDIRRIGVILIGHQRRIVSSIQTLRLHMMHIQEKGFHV

[12] = target: T5, EPHA6; test: Binding constants (Kd) for EPHA6, kinase competition binding with qPCR readout
[13] = Sprague-Dawley, brain, PO 50 mg/kg

T1 sequence (P00533 25-1210): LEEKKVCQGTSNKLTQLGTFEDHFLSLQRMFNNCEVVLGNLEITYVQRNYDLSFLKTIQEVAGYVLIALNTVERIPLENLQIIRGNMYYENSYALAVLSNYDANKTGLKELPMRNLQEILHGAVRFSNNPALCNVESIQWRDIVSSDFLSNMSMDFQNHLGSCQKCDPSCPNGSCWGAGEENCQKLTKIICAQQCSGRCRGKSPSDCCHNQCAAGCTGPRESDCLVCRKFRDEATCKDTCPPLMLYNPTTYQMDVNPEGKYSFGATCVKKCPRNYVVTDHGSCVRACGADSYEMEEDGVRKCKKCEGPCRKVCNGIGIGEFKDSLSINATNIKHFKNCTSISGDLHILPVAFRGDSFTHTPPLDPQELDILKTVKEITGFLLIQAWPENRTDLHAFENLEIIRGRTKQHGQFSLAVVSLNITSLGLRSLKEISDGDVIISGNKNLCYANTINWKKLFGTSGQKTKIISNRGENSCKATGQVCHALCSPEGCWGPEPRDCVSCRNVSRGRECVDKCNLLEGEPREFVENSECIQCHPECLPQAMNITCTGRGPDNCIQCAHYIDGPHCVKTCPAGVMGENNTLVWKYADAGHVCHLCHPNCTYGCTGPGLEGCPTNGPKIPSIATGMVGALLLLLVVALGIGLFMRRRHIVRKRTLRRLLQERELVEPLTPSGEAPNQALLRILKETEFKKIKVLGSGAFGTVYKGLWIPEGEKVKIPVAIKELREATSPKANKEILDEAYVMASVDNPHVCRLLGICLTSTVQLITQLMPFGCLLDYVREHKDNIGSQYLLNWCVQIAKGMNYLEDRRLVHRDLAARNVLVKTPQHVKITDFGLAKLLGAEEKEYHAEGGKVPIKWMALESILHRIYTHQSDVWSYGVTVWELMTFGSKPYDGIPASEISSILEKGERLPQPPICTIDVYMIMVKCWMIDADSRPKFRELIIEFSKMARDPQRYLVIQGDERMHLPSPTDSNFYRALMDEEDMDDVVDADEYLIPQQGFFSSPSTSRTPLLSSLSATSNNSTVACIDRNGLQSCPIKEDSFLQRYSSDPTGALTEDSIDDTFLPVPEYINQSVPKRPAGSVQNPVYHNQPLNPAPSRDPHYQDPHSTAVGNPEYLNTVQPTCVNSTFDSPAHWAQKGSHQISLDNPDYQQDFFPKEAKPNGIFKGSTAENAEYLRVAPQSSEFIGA

COc1cc2ncnc(Nc3ccc(F)c(Cl)c3F)c2cc1OCCCN1CCC(OC(F)F)CC1 [2(q), N-(3-chloro-2,4-difluoro-phenyl)-6-[3-[4-(difluoromethoxy)-1-piperidyl]propoxy]-7-methoxy-quinazolin-4-amine]
IC50 [1]: 0.0434 nM
IC50 [2]: 0.0142 nM
IC50 [3]: 4010 nM

COc1cc2ncnc(Nc3ccc(F)c(Cl)c3F)c2cc1OC(=O)N1CC[C@@H](COC(F)F)C1 [2(Qq), [4-(3-chloro-2,4-difluoro-anilino)-7-methoxy-quinazolin-6-yl] (3R)-3-(difluoromethoxymethyl)pyrrolidine-1-carboxylate]
IC50 [1]: 0.0138 nM
IC50 [2]: 0.0164 nM
IC50 [3]: 6820 nM

C#Cc1cccc(Nc2ncnc3cc(OCCOC)c(OCCOC)cc23)c1 [Erlotinib, N-(3-ethynylphenyl)-6,7-bis(2-methoxyethoxy)quinazolin-4-amine, reference compound]
AUClast [4]: 4319 ng·h/g
Cmax [4]: 1710 ng/g
Tmax [4]: 4 h
% Control @ 300 nM [5]: 0.12%
MLM (30 min) [6]: 56.3
HLM (30 min) [7]: 75.5%

Fc1c(Nc2ncnc3cc(OCCOC(F)F)c(OCCOC(F)F)cc23)ccc(Cl)c1Cl [Compound 2A•HCl, N-(3,4-dichloro-2-fluoro-phenyl)-6,7-bis[2 (difluoromethoxy)ethoxy]quinazolin-4-amine]
IC50 [8]: 21 nM
AUClast [4]: 22593 ng·h/g
Cmax [4]: 6980 ng/g
Tmax [4]: 4 h
Kp at 4 h ([4]; read-out: AUCLast Ratio (Brain/Plasma)): 1.69
Kp at 4 h ([4]; read-out: Cmax Ratio (Brain/Plasma)): 1.81
Cmax [9, 13]: 5610 ng/g
Tmax [9, 13]: 8 h
Kp at 8 h ([9]; Sprague-Dawley, read-out: AUCLast Ratio (Brain/Plasma)): 1.5
Kp at 8 h ([9]; Sprague-Dawley, read-out: Cmax Ratio (Brain/Plasma)): 1.72
AUCInf ([9]; brain, PO 50 mg/kg): 102348 ng·h/g
AUClast ([9]; brain, PO 50 mg/kg): 101853 ng·h/g
recovery at 120 min, 5 μM ([10]; Caco-2, pH 7.4, with none (verapamil 0 μM), Caco-2, Verapamil 0 μM, read-out: Recovery (%) AP-BL): 43.4%
recovery at 120 min, 5 μM ([10]; Caco-2, pH 7.4, with none (verapamil 0 μM), Caco-2, Verapamil 0 μM, read-out: Recovery (%) BL-AP): 57.1%
recovery at 120 min, 5 μM ([10]; Caco-2, pH 7.4, with verapamil 100 μM, Caco-2, Verapamil 100 μM, read-out: Recovery (%) AP-BL): 55.5%
recovery at 120 min, 5 μM ([10]; Caco-2, pH 7.4, with verapamil 100 μM, Caco-2, Verapamil 100 μM, read-out: Recovery (%) BL-AP): 83.2%
Papp A→B at 120 min, 5 μM ([10]; pH 7.4, Caco-2, Verapamil 0 μM): 0.58 ×10⁻⁶ cm/s
Papp B→A at 120 min, 5 μM ([10]; pH 7.4, Caco-2, Verapamil 0 μM): 0.35 ×10⁻⁶ cm/s
efflux ratio at 120 min, 5 µM ([10]; pH 7.4, Caco-2, Verapamil 0 μM): 0.59
MLM (30 min) ([6]; listed as 2(a)•HCl): 91.7
HLM (30 min) ([7]; listed as 2(a)•HCl): 97.4%
selectivity over erlotinib for the ephrin receptor kinase, EPHA6 [11]: did show selectivity over erlotinib
Kd [12]: 9.1 nM

Reference: patent US20180050993A1, “NOVEL FLUORINATED DERIVATIVES AS EGFR INHIBITORS USEFUL FOR TREATING CANCERS” (Trillium Therapeutics Inc., priority 2015, published 2018)
